What all share (assay): NCI tumour cell line growth inhibition, 48 h
Assay [1] concerns NCI-H226 lung.
The subject of assay [2] is SF-268 CNS.
Assay [3] deals with HCT-116 colon.
For assay [4], the system named is A498 renal.
In assay [5] the test system is OVCAR-5 ovarian.
Assay [6] relates to NCI-H460 lung.
In assay [7] the test system is ACHN renal.
Assay [8] relates to OVCAR-3 ovarian.
The subject of assay [9] is SR leukemia.
Assay [10] concerns M14 melanoma.

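The compound was tested at five concentrations on cells cultured in 96-well plates, with a 48-hour exposure period. The concentration for 50% growth inhibition is given as GI50. TGI is the concentration that stops growth completely.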

With `CC(=O)O[C@H]1CC[C@@]2(C)[C@@H](CC[C@@H]3[C@@H]2CC[C@]2(C)C=C(C=O)C[C@@H]32)C1`, the GI50 in [1] is 28.8 µM; in assay [2], 3.3 µM; in assay [3], 1.66 µM; in assay [4], 94.6 µM; in [5], 13.2 µM; in [6], 20.6 µM. Also, the GI50 in [7] is 20.2 µM; in assay [8], 3.1 µM; in [9], 3.19 µM; in assay [10], 4.74 µM. The TGI in [1] is above 100 µM; in [2], 11.2 µM; in [3] it was 3.42 µM; in assay [4], above 100 µM; in assay [5], 34.4 µM; in assay [6], 42.4 µM. In addition, the TGI in assay [7] was 60.8 µM; in assay [8], 9.04 µM; in assay [9] it was 9.94 µM; in [10] it was 20.8 µM.
On to `COc1cc(C(=O)/C=C/c2cccnc2Nc2ccccc2)cc(OC)c1OC`, for which the GI50 in [1] was 1.23 µM; in assay [2], 1.55 µM; in [3], 0.337 µM; in assay [4], 1.42 µM; in assay [5] it was 1.54 µM; in assay [6] it was 1.8 µM. In addition, the GI50 in assay [7] was 1.28 µM; in assay [8], 0.429 µM; in assay [9], 0.346 µM; in assay [10] it was 1.5 µM. Besides, the TGI in [1] came to 2.58 µM; in assay [2], 3.09 µM; in assay [3], 1.31 µM; in assay [4], 2.75 µM; in [5], 3.11 µM; in assay [6], 3.63 µM. For the same compound, the TGI in assay [7] is 2.57 µM; in [8], 1.48 µM; in [9] it was above 100 µM; in [10], 2.92 µM.
For the compound `O=C(COc1cccc(/C=C2\COc3ccc(Cl)cc3C2=O)c1)c1ccc(Cl)cc1`, the GI50 in assay [1] is 14.1 µM; in assay [2], 13.9 µM; in assay [3], 3.28 µM; in [4], 13.8 µM; in [5], 13 µM; in [6], 15.8 µM. Also, the GI50 in assay [7] was 15.4 µM; in [8], 7.71 µM; in [9] it was 1.71 µM; in assay [10], 11.6 µM. The TGI in [1] came out at 31.2 µM; in assay [2] it was 26.9 µM; in [3], 11.3 µM; in [4], 27.1 µM; in [5] it was 25.8 µM; in assay [6], 30.1 µM. Moreover, the TGI turned out to be 29.4 µM in [7], 19.8 µM in assay [8], 5.11 µM in assay [9] and 24.4 µM in assay [10].
With `COc1cccc2nc3cc(C)c(C)cc3nc12`, the TGI in assay [1], in assay [2], in assay [3], in assay [4], in [5] and in assay [6] was above 100 µM each time. Also, the TGI in assay [7], in assay [8], in assay [9] and in assay [10] was above 100 µM each time.
Regarding `c1ccc(CSc2nnc3c4ccccc4c4ccccc4c3n2)cc1`, the TGI in assay [1] is above 100 µM; in assay [2], 67.9 µM; in assay [3], above 100 µM; in assay [4], above 100 µM; in assay [5], above 100 µM; in [6] it was above 100 µM. Also, the TGI was above 100 µM in assay [7], above 70.9 µM in assay [8], above 100 µM in assay [9] and above 100 µM in assay [10].
Turning to `CC1(C)CC[C@]2(C(=O)N3CCOCC3)CC[C@]3(C)C(=CC[C@@H]4[C@@]5(C)C/C(=C/c6ccncc6)C(=O)C(C)(C)[C@@H]5CC[C@]43C)[C@@H]2C1`, the GI50 in [1] was 2.09 µM; in assay [2], 6.33 µM; in assay [3] it was 0.319 µM; in assay [4], 1.83 µM; in [5] it was 2.27 µM; in [6], 1.32 µM. Besides, the GI50 in [7] was 2.2 µM; in assay [8], 2.06 µM; in [9], 0.365 µM; in assay [10], 1.41 µM. In addition, the TGI was 9.22 µM in assay [1]; above 100 µM in [2]; 2 µM in assay [3]; 4.96 µM in assay [4]; 9.45 µM in [5]; 4.17 µM in assay [6]. The TGI was 21.7 µM in assay [7], above 100 µM in [8], above 100 µM in assay [9] and 5.23 µM in assay [10].
Take `O=C(c1cccnc1)c1cc(-c2ccccn2)c(=O)n2ccccc12`: the GI50 in assay [1], in assay [2], in assay [3], in assay [4], in assay [5] and in [6] was above 100 µM each time. In addition, the GI50 in assay [7], in [8], in assay [9] and in assay [10] was above 100 µM each time. For the same compound, the TGI in assay [1], in assay [2], in [3], in [4], in assay [5] and in assay [6] was above 100 µM throughout. Moreover, the TGI in [7], in assay [8], in assay [9] and in assay [10] was above 100 µM each time.
Turning to `Cn1cc(-c2ccc(-c3cn(C)c4ccc(Cl)cc34)s2)c2cc(Cl)ccc21`, the GI50 in assay [1], in assay [2], in [3], in assay [4], in assay [5] and in assay [6] was above 100 µM in each case. Moreover, the GI50 in assay [7], in assay [8], in [9] and in assay [10] was above 100 µM each time. The TGI in [1], in assay [2], in assay [3], in [4], in assay [5] and in assay [6] was above 100 µM throughout. The TGI in assay [7], in assay [8], in assay [9] and in assay [10] was above 100 µM in each case.
